Measurements from US9708314B2, “Heterocyclic amide compound” (NISSAN CHEMICAL INDUSTRIES, LTD., priority 2013, dated 2017).

Key:
Type in all cases: in vivo
Monochoria vaginalis = experiment: Test Example 1: herbicidal activity, application before weed generation in submerged conditions; details: Application herbicide amount 320 g/ha; Seventeenth Table
Procedure, shortened: (§1)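 Water-diluted emulsion formulation is applied onto flood water (4 cm deep) covering alluvial soil on the day weed seeds are sown, after transplanting 2.5 leaf stage rice. Rates are expressed per hectare. Injury or control is graded 0–5 three weeks later.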

[1] = tested on: Echinochloa oryzacola Vasing.; experiment: as above; details: Application herbicide amount 320 g/ha; Seventeenth Table
Procedure, shortened: as §1

Scirpus juncoides = experiment: as above; details: Application herbicide amount 320 g/ha; Seventeenth Table
Procedure, shortened: as §1

Chenopodium album = experiment: Test Example 4: herbicidal effect by application to foliage (diluvial soil, plastic box); details: application to foliage, application herbicide amount 320 g/ha
Procedure, shortened: (§2)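 Greenhouse plants (25° C. to 30° C., 14 d, diluvial soil) receive a foliar spray of water-diluted emulsifiable formulation at defined g/ha. Grading after 3 weeks uses a six-step herbicidal-ratio scale, with 4 covering 70% to <90% and 1 covering 5% to <20%.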

Lolium multiflorum Lam. = experiment: as above; details: application to foliage, application herbicide amount 320 g/ha
Procedure, shortened: as §2

Galium spurium = experiment: as above; details: application to foliage, application herbicide amount 320 g/ha
Procedure, shortened: as §2

Apera spica-venti. = experiment: as above; details: application to foliage, application herbicide amount 320 g/ha
Procedure, shortened: as §2

Abutilon theophrasti = experiment: as above; details: application to foliage, application herbicide amount 320 g/ha
Procedure, shortened: as §2

[2] = tested on: Echinochloa crus-galli var. crus-galli; experiment: as above; details: application to foliage, application herbicide amount 320 g/ha
Procedure, shortened: as §2

Veronica persica = experiment: as above; details: application to foliage, application herbicide amount 320 g/ha
Procedure, shortened: as §2

Avena fatua = experiment: as above; details: application to foliage, application herbicide amount 320 g/ha
Procedure, shortened: as §2

Setaria viridis = experiment: as above; details: application to foliage, application herbicide amount 320 g/ha
Procedure, shortened: as §2

Alopecurus myosuroides = experiment: as above; details: application to foliage, application herbicide amount 320 g/ha
Procedure, shortened: as §2

Digitaria ciliaris = experiment: as above; details: application to foliage, application herbicide amount 320 g/ha
Procedure, shortened: as §2

[3] = tested on: Beta vulgaris ssp. vulgaris; experiment: Test Example 4: effect on crop by application to foliage (diluvial soil, plastic box); details: application to foliage, application herbicide amount 320 g/ha
Procedure, shortened: as §2

[4] = tested on: directly sowed Oryza sativa; experiment: as above; details: application to foliage, application herbicide amount 320 g/ha
Procedure, shortened: as §2

Brassica campestris L. = experiment: as above; details: application to foliage, application herbicide amount 320 g/ha
Procedure, shortened: as §2

Triticum aestivum = experiment: as above; details: application to foliage, application herbicide amount 320 g/ha
Procedure, shortened: as §2

Glycine max = experiment: as above; details: application to foliage, application herbicide amount 320 g/ha
Procedure, shortened: as §2

Zea mays = experiment: as above; details: application to foliage, application herbicide amount 320 g/ha
Procedure, shortened: as §2

[5] = tested on: transplanted Oryza sativa; experiment: Test Example 1: effect on crop, application before weed generation in submerged conditions; details: Application herbicide amount 320 g/ha; Seventeenth Table
Procedure, shortened: as §1

Compound | C: Monochoria vaginalis (herbicidal effect grade) (Monochoria vaginalis) | A: Echinochloa oryzicola Vasing. (herbicidal effect grade) [1] | B: Scirpus juncoides (herbicidal effect grade) (Scirpus juncoides) | O (Chenopodium album) herbicidal effect (Chenopodium album) | K (Lolium multiflorum Lam.) herbicidal effect (Lolium multiflorum Lam.) | Q (Galium spurium) herbicidal effect (Galium spurium) | L (Apera spica-venti.) herbicidal effect (Apera spica-venti.) | M (Abutilon theophrasti) herbicidal effect (Abutilon theophrasti) | H (Echinochloa crus-galli var. crus-galli) herbicidal effect [2] | R (Veronica persica) herbicidal effect (Veronica persica) | I (Avena fatua) herbicidal effect (Avena fatua) | G (Setaria viridis) herbicidal effect (Setaria viridis) | J (Alopecurus myosuroides) herbicidal effect (Alopecurus myosuroides) | F (Digitaria ciliaris) herbicidal effect (Digitaria ciliaris) | f (Beta vulgaris ssp. vulgaris) effect on crop [3] | d (directly sowed Oryza sativa) effect on crop [4] | g (Brassica campestris L.) effect on crop (Brassica campestris L.) | e (Triticum aestivum) effect on crop (Triticum aestivum) | c (Glycine max) effect on crop (Glycine max) | b (Zea mays) effect on crop (Zea mays) | also measured
Cc1nnc(NC(=O)c2ccc(C(F)(F)F)n3c(C(C)C)nnc23)o1 [1-004, 3-Isopropyl-N-(5-methyl-1,3,4-oxadiazol-2-yl)-5-(trifluoromethyl)-[1,2,4]triazolo[4,3-a]pyridine-8-carboxamide] | 4 (Herbicidal ratio of 70% or more and less than 90%) | 5 (Herbicidal ratio of 90% or more (almost completely withered)) | 4 (Herbicidal ratio of 70% or more and less than 90%) | 5 (Herbicidal ratio of 90% or more (almost completely withered)) | 2 (Herbicidal ratio of 20% or more and less than 40%) | 1 (Herbicidal ratio of 5% or more and less than 20%) | 3 (Herbicidal ratio of 40% or more and less than 70%) | 4 (Herbicidal ratio of 70% or more and less than 90%) | 5 (Herbicidal ratio of 90% or more (almost completely withered)) | 4 (Herbicidal ratio of 70% or more and less than 90%) | 2 (Herbicidal ratio of 20% or more and less than 40%) | 4 (Herbicidal ratio of 70% or more and less than 90%) | 2 (Herbicidal ratio of 20% or more and less than 40%) | 5 (Herbicidal ratio of 90% or more (almost completely withered)) | 4 (Herbicidal ratio of 70% or more and less than 90%) | 4 (Herbicidal ratio of 70% or more and less than 90%) | 3 (Herbicidal ratio of 40% or more and less than 70%) | 2 (Herbicidal ratio of 20% or more and less than 40%) | 4 (Herbicidal ratio of 70% or more and less than 90%) | 0 (Herbicidal ratio of 5% or less (almost no effect)) | a: transplanted Oryza sativa (effect on crop grade) [5]: 1 (Herbicidal ratio of 5% or more and less than 20%)
CC(C)c1nnc2c(C(=O)Nc3nnco3)ccc(C(F)(F)F)n12 [1-050] | 4 (Herbicidal ratio of 70% or more and less than 90%) | 5 (Herbicidal ratio of 90% or more (almost completely withered)) | 5 (Herbicidal ratio of 90% or more (almost completely withered)) | 5 (Herbicidal ratio of 90% or more (almost completely withered)) | 3 (Herbicidal ratio of 40% or more and less than 70%) | 2 (Herbicidal ratio of 20% or more and less than 40%) | 3 (Herbicidal ratio of 40% or more and less than 70%) | 5 (Herbicidal ratio of 90% or more (almost completely withered)) | 5 (Herbicidal ratio of 90% or more (almost completely withered)) | 5 (Herbicidal ratio of 90% or more (almost completely withered)) | 3 (Herbicidal ratio of 40% or more and less than 70%) | 4 (Herbicidal ratio of 70% or more and less than 90%) | 2 (Herbicidal ratio of 20% or more and less than 40%) | 5 (Herbicidal ratio of 90% or more (almost completely withered)) | 5 (Herbicidal ratio of 90% or more (almost completely withered)) | 4 (Herbicidal ratio of 70% or more and less than 90%) | 5 (Herbicidal ratio of 90% or more (almost completely withered)) | 3 (Herbicidal ratio of 40% or more and less than 70%) | 3 (Herbicidal ratio of 40% or more and less than 70%) | 1 (Herbicidal ratio of 5% or more and less than 20%) | a: transplanted Oryza sativa (effect on crop grade) [5]: 2 (Herbicidal ratio of 20% or more and less than 40%)
Cc1nnc(NC(=O)c2ccc(C(F)(F)F)n3c(C[S+]([O-])CC(F)(F)F)nnc23)o1 (stereo not drawn) [1-038] | 1 (Herbicidal ratio of 5% or more and less than 20%) | 2 (Herbicidal ratio of 20% or more and less than 40%) | 2 (Herbicidal ratio of 20% or more and less than 40%) | 5 (Herbicidal ratio of 90% or more (almost completely withered)) | 1 (Herbicidal ratio of 5% or more and less than 20%) | 3 (Herbicidal ratio of 40% or more and less than 70%) | 2 (Herbicidal ratio of 20% or more and less than 40%) | 5 (Herbicidal ratio of 90% or more (almost completely withered)) | 5 (Herbicidal ratio of 90% or more (almost completely withered)) | 5 (Herbicidal ratio of 90% or more (almost completely withered)) | 3 (Herbicidal ratio of 40% or more and less than 70%) | 5 (Herbicidal ratio of 90% or more (almost completely withered)) | 1 (Herbicidal ratio of 5% or more and less than 20%) | 5 (Herbicidal ratio of 90% or more (almost completely withered)) | 5 (Herbicidal ratio of 90% or more (almost completely withered)) | 4 (Herbicidal ratio of 70% or more and less than 90%) | 4 (Herbicidal ratio of 70% or more and less than 90%) | 1 (Herbicidal ratio of 5% or more and less than 20%) | 0 (Herbicidal ratio of 5% or less (almost no effect)) | 0 (Herbicidal ratio of 5% or less (almost no effect)) | a: transplanted Oryza sativa (effect on crop grade) [5]: 0 (Herbicidal ratio of 5% or less (almost no effect))
